Source: patent US11028051B2, “Tetrahydroquinoline-based bromodomain inhibitors” (St. Jude Children's Research Hospital, priority 2016, dated 2021)

What was measured:
HDMB03 cells = assay: cell viability, CellTiter-Glo; assay type: cell-based, human; conditions: Homo sapiens, HD-MB03, HDMB03 cells; read-out: cell viability EC50
Procedure: Human G3 medulloblastoma or mouse SHH medulloblastoma cells were grown as neurospheres in supplemented neurobasal medium, as previously described (Kawauchi et al., 2012.)
After 7 days of treatment, an equal volume of CellTiter-Glo reagent (G7572, Promega) was added and the luminescence signal was measured using an automated Envision plate reader (Perkin-Elmer). Luminescence data were normalized by log10 transformation prior to calculating the percent inhibition using the following equation:
100*(negative control mean −compound value)/(negative control mean −positive control mean).
High-throughput assay data were analyzed using Robust Interpretation of Screening Experiments (RISE) application written in Pipeline Pilot (Accelrys, v. 8.5) and the R program (R Development Core Team).
Dose-response curves were calculated by regressing the median percent inhibition obtained over triplicate experiments to log 10-transformed concentrations. Non-linear regression was then performed using the R drc package with the four parameter log-logistic function (LL2.4) (Ritz and Streibig, 2009). Curves were fit under three different constraints: (1) all parameters free, (2) high response fixed to 100, (3) low response fixed to 0; and the best fit from these three nested models was selected using the anova.drc function.

BRD2-BD2 [1] = assay: isothermal titration calorimetry analysis of binding; conditions: ITC Kd BRD2-BD1 / BRD2-BD2
Procedure: (§1) b. Isothermal Titration Calorimetry Analysis of Binding to Brd2-BD1 and Brd2-BD2
(§2) Binding of compounds to BRD2 was monitored using an ITC200 (Microcal, Piscataway, N.J.). Either Brd2.1 (74-194) or Brd2.2 (348-455) was dialyzed overnight into a solution containing 50 mM HEPES, pH 7.0 and 150 mM NaCl at 15° C. Enzyme concentrations were determined after dialysis by absorbance at 280 nm using a molar extinction coefficient (ε280) of 25,565 M^−1 cm^−1 (2.1) or 16,055 M^−1 cm^−1 (2.2). Enzyme was diluted in dialysis buffer and 39.6 μL was loaded into the syringe. Compounds were dissolved in the same dialysis buffer and loaded in the cell to a volume of 204 μL. Injections were carried out by serial injections of enzyme; first, 1 injection of 1 μL, followed by 19 incremental injections of 2 μL, at 120 second intervals. Data from the first injection was excluded, due to pre-equilibration mixing between the contents of cell and syringe at the syringe tip. Peak areas were integrated, normalized, and then fitted by non-linear regression using the independent sites model in Origin™ (version 2.3.6, Microcal, Piscataway, N.J.).

BRD2-BD2 [2] = molecular target: T1, BRD2-BD2 (Homo sapiens (Human), UniProt P25440); assay: as above; conditions: ITC; for ΔG / ΔH / −TΔS: BRD2-BD2; for Kd: BRD2-BD2, average of 3 experiments, read-out: average Kd
Procedure: as §1, §2
Target sequence in this assay (P25440 348-455): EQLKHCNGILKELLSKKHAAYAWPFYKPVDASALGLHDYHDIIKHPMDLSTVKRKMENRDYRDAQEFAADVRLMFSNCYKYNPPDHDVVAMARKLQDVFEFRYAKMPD

BRD2-BD1 [3] = molecular target: T2, BRD2-BD1 (Homo sapiens (Human), UniProt P25440); assay: as above; conditions: ITC; for ΔG / ΔH / −TΔS: BRD2-BD1; for Kd: BRD2-BD1, average of 3 experiments, read-out: average Kd
Procedure: as §1, §2
Target sequence in this assay (P25440 74-194): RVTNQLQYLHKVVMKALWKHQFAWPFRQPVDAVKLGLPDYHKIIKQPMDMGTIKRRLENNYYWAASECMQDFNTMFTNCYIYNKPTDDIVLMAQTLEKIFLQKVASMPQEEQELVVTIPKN

[4] = test system: c-Myc expression in HDMB03 cells; assay: c-Myc expression inhibition, high content microscopy (HCM); assay type: cell-based, human; conditions: Homo sapiens, HD-MB03, HDMB03 cells; read-out: c-Myc expression EC50
Procedure: 3000 human G3 medulloblastoma or 2000 mouse SHH medulloblastoma cells per well were plated into 384-well plates (6007710, Perkin Elmer) in 30 μL of supplemented neurobasal medium using a Wellmate automated dispenser (Thermo Matrix). After 24 hours, 125 nl of compound was transferred via pin tool, resulting in a final drug concentration from 2 nM to 40 μM. 72 hours after adding the drug, the plates were fixed with 4% formaldehyde for 20 min. After fixation the cells were then washed 3 times with 75 μl of PBS. The cells were then permeabilized with 0.1% Triton-X 100 for 15 minutes at 25° C. and blocked using 1% BSA in PBS for 1 hour at 25° C. The primary antibody against c-Myc Ab (#9402, Cell Signaling) at a 1:400 dilution was diluted in 1% BSA in PBS. This mixture was added to each well before incubation overnight at 4° C. Each well was then washed 3 times with PBS using a Biotek ELX405 Select plate washer, and incubated for 1 hour at 25° C. with a solution containing 1/400 goat α-rabbit-Alexa-488 (4412S, Cell Signaling) and 1 μM Hoechst 33342 to detect nuclear material (H3570, Molecular Probes). Two images were captured of each well at 10× using a GE Healthcare InCell 6000 at 405 nM to detect nuclear staining and 488 nM to detect c-Myc. All data were analyzed using the multi-target analysis algorithm of the GE InCell Analyzer Workstation software. The number of nuclear objects in each well, as well as all nuclear measurements, was determined through nuclear masks over the Hoechst staining. C-Myc staining was then measured using top-hat segmentation in the entire cell.

BRD4-BD2 = BRD4-BD2 (Homo sapiens (Human), UniProt O60885); assay: competitive TR-FRET assay, BET-BD with acetylated peptide ligand; assay type: binding; conditions: Table 2, inhibitor potency by TR-FRET
Procedure: (§3) Inhibitor potency was determined using a competitive TR-FRET assay as detailed herein, measuring interaction of the respective BET-BD with an acetylated peptide ligand (Table 2).

BRD4-BD1 = BRD4-BD1 (Homo sapiens (Human), UniProt O60885); assay: as above; assay type: binding; conditions: Table 2, inhibitor potency by TR-FRET
Procedure: as §3

BRD2-BD2 [5] = molecular target: T1, BRD2-BD2; assay: as above; assay type: binding; conditions: for IC50: Table 2, inhibitor potency by TR-FRET; for BD1/BD2: Table 2, ratio BRD2-BD1/BRD2-BD2
Procedure: as §3
Target sequence in this assay (P25440 344-453): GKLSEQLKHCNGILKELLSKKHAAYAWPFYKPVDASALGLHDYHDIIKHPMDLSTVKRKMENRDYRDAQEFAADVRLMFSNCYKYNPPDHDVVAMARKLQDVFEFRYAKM

BRD3-BD1 = BRD3-BD1 (Homo sapiens (Human), UniProt Q15059); assay: as above; assay type: binding; conditions: Table 2, inhibitor potency by TR-FRET
BRD3-BD1, sequence (Q15059 34-140): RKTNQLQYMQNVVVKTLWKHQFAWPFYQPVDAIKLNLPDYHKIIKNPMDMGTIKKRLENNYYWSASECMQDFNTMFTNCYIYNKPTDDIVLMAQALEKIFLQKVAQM
Procedure: as §3

BRD2-BD1 [6] = molecular target: T2, BRD2-BD1; assay: as above; assay type: binding; conditions: Table 2, inhibitor potency by TR-FRET
Procedure: as §3
Target sequence in this assay (P25440 74-180): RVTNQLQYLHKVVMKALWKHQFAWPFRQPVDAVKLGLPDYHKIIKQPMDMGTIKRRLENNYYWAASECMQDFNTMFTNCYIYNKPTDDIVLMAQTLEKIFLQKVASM

BRDT = BRDT (Homo sapiens, UniProt Q58F21); assay: as above; assay type: binding; conditions: Table 2, inhibitor potency by TR-FRET
Procedure: as §3

Row | SMILES | EC50 (HDMB03 cells) [µM] | Selectivity (2-1/2-2) (BRD2-BD2 [1]) | ΔG (BRD2-BD2 [2]) [kcal/mol] | ΔH (BRD2-BD2 [2]) [kcal/mol] | −TΔS (BRD2-BD2 [2]) [kcal/mol] | Kd (BRD2-BD2 [2]) [µM] | ΔG (BRD2-BD1 [3]) [kcal/mol] | ΔH (BRD2-BD1 [3]) [kcal/mol] | −TΔS (BRD2-BD1 [3]) [kcal/mol] | Kd (BRD2-BD1 [3]) [µM] | EC50 [4] [µM] | IC50 (BRD4-BD2) [µM] | IC50 (BRD4-BD1) [µM] | IC50 (BRD2-BD2 [5]) [µM] | BD1/BD2 (BRD2-BD2 [5]) | IC50 (BRD3-BD1) [µM] | IC50 (BRD2-BD1 [6]) [µM] | IC50 (BRDT) [µM]
1 | CC(=O)N1c2ccc(-c3ccoc3)cc2[C@H](NC(=O)OC(C)C)C[C@@H]1C [compound 51] | 3.3 | 0.5 | -8.61 | -6.31 | -2.29 | 0.3 | -8.96 | -9.90 | 0.94 | 0.162 | 1 | 4.3 | 5.8 | 1.42 | 5 | 2.3 | 7.23 | 23
2 | CC(=O)N1c2ccc(-c3cccs3)cc2[C@H](NC(=O)OC(C)C)C[C@@H]1C [compound 52] | – | 2.9 | -10.12 | -7.18 | -2.94 | 0.0209 | -9.52 | -8.27 | -1.25 | 0.0613 | – | 3 | > 77.8 | 0.34 | 5 | 1.2 | 1.68 | –
3 | CC(=O)N1c2ccc(-c3ccsc3)cc2[C@H](NC(=O)OC(C)C)C[C@@H]1C [compound 53] | – | 4.2 | -10.25 | -6.92 | -3.33 | 0.0171 | -9.43 | -7.69 | -1.74 | 0.0717 | – | 4.6 | 14 | 0.97 | 7 | 3.1 | 7.21 | –
4 | CC(=O)N1c2ccc(-c3ccc[nH]3)cc2[C@H](NC(=O)OC(C)C)C[C@@H]1C [compound 54] | – | 3.7 | -9.82 | -6.89 | -2.92 | 0.0359 | -9.08 | -6.90 | -2.18 | 0.131 | – | 8.5 | 1.7 | > 48.6 | – | 5.6 | 1.55 | –
5 | CC(=O)N1c2ccc(-c3cc[nH]c3)cc2[C@H](NC(=O)OC(C)C)C[C@@H]1C [compound 55] | – | 4.6 | -10.15 | -7.01 | -3.32 | 0.0199 | -9.28 | -7.33 | -1.95 | 0.0915 | – | 1.2 | 1.3 | 0.37 | 5 | 0.26 | 1.71 | 49
